In patent US9206236B2, “Peptides for treating cancer” (Gene Signal International SA, priority 2010, dated 2015):
“Also recorded” adds a separate entry of the source. Where a SMILES comes first, the peptide text is derived from it. [ ]: non-standard residue; d: D form. pY = N[C@@H](Cc1ccc(OP(=O)(O)O)cc1)C(=O)O

Tests used:
[1] = molecular target: T1, recruitment of the regulatory subunit (p85) of the enzyme PI-3K by IRS-1 (Homo sapiens, UniProt P27986); assay: Recruitment of p85 of PI-3K by IRS-1 (IRS-1 immunoprecipitation, anti-p85 immunoblot) in HMEC; format: cell-based; details: final concentration of peptide 500 μg/ml
T1 construct: endogenous in cells; host or cells: human microvascular endothelial cells (HMEC)
Description: (§1) Human EC grown in EGM-2MV (80% confluence) were incubated with the peptides of the invention or vehicle for the indicated time, washed three times in cold PBS and directly lysed in 2 ml of ice-cold lysis buffer (10 mM Tris pH 7.5, 150 mM NaCl, 1 mM PMSF, 0.5 μg/ml leupeptin, 1 μg/ml pepstatin A, and 1 μg/ml aprotinin) by incubation for 30 min at 4° C. Cell lysate were spun at […] for 10 min, insoluble materials were discarded, and protein contents measured by Bradford assay of supernatants were adjusted. Cell lysate (1 ml) was precleared with 25 μl of protein G-plus agarose beads (Santa Cruz) for 30 min, and proteins were then immunoprecipitated by adding 2 μg of the indicated antibody and incubated for 1 hr. The immunocomplex was pulled down with protein G-plus agarose beads and the beads were washed three times with lysis buffer. The immunoprecipitates were separated by NuPAGE® 4-12% Bis-Tris gel electrophoresis under reducing conditions, transferred to PVDF membrane (Novex System, Invitrogen), and the membrane was blocked with 5% (w/v) non-fat milk in TBS containing 0.1% v/v Tween-20 for 1 hr.
As it is widely admitted that the tyrosine phosphorylation of IRS-1 leads to its association with the regulatory subunit (p85) of the enzyme PI-3K, and this event lead to important increases in the enzymatic activity of this later, we have investigated the influence of the tyrosine phosphorylated and non phosphorylated peptides onto the recruitment of the regulatory subunit (p85) of the enzyme PI-3K by IRS-1. For that, human microvascular endothelial cells (HMEC) were incubated with the tyrosine phosphorylated and non phosphorylated peptides (final concentration of peptide 500 μg/ml) followed by cells lysis and immuoprecipitation of the protein IRS-1. The immunoprecipitates were then resolved in SDS-PAGE, proteins were transferred to membranes, and the membranes were immunoblotted with an anti-p85 PI3K monoclonal antibody.

NCI-H460 tumors = assay: NCI-H460 tumor xenograft in nude mice, tumor volume (Example 2); format: in vivo
Description: H460 cell line has cytology compatible with human Non-Small Cell Lung Cancer (NSCL). Cells were grown in MEM medium containing 10% FCS at 37° C., 5% CO2 humidified atmosphere. The absence of mycoplasms was confirmed by using the PCR Mycoplasma Detection kit (Takara). All experiments were reviewed by the Genopole's institutional animal care and use committee and were performed in accordance with institutional guidelines for animal care. Female BALB/c nu/nu mice (n=30) were used at 5-6 weeks of age. The animals were housed in laminar air-flow cabinets under pathogen-free conditions with a 12 h light/12 h dark schedule, and fed autoclaved standard chow and water ad libitum. The NCI-H460 human NSCL cell line was obtained from American Type Culture Collection (ATCC) and cells were grown in RPMI medium 1640 supplemented with 1 μM sodium pyruvate. Tumor cells (10^7 cells in 200 μl of HBSS) were injected subcutaneously into the right flanks of mice. After engraftment, tumor volume was measured by Vernier callipers, and calculated as described in Balsari A et al. (Balsari A et al. (2004) Eur J Cancer 40: 1275-1281). At tumor volume about 150 mm3, animals were randomized, and separated into five groups of five animals. Control mice (group 1) were intraperitoneally injected with vehicle (10% DMSO in buffer saline) every day. GS-0 was dissolved in vehicle and intraperitoneally injected (group 2) every day (12 injections). GS-1 was dissolved in vehicle and intraperitoneally injected (group 3) every day (12 injections). Tumor volume and body weight were measured every other day over the treatment period (12 days). GS-1 as well as the control peptide GS-0 were solubilized in DMSO and the resulting solutions were diluted 10 times with phosphate buffer saline (PBS) to obtain a concentration of 1 mg of peptide/ml of 10% DMSO in PBS. At this concentration, all peptides were soluble in 10% DMSO.

[2] = Body weight and toxicity of mice bearing NCI-H460 tumors (Example 2); format: in vivo
Description: All experiments were reviewed by the Genopole's institutional animal care and use committee and were performed in accordance with institutional guidelines for animal care. Female BALB/c nu/nu mice (n=30) were used at 5-6 weeks of age. The animals were housed in laminar air-flow cabinets under pathogen-free conditions with a 12 h light/12 h dark schedule, and fed autoclaved standard chow and water ad libitum. […] Tumor cells (10^7 cells in 200 μl of HBSS) were injected subcutaneously into the right flanks of mice. […] At tumor volume about 150 mm3, animals were randomized, and separated into five groups of five animals. Control mice (group 1) were intraperitoneally injected with vehicle (10% DMSO in buffer saline) every day. GS-0 was dissolved in vehicle and intraperitoneally injected (group 2) every day (12 injections). GS-1 was dissolved in vehicle and intraperitoneally injected (group 3) every day (12 injections). Tumor volume and body weight were measured every other day over the treatment period (12 days).

[3] = tested on: human microvascular endothelial cells (HMEC); assay: In vitro angiogenesis assay (Matrigel tube formation); format: cell-based; details: 500 μg/ml final concentration of peptide, images at 18 h
Description: Angiogenesis of human microvascular endothelial cells (HMEC) was induced in vitro using a Matrigel assay described by Al-Mahmood et al (2009, JPET, 2009; 58:933). This method is based on the differentiation of endothelial cells to form capillary structures on a Matrigel Matrix. Matrigel is prepared the Engelbreth-Holm-Swarm (EHS) mouse tumor, which represents a complex mixture of basement membrane proteins including type IV collagen, entactin, proteo-heparan sulfate and other growth factors.
Briefly, 250 μl of Matrigel were transferred to each well of a 24-well culture plate and incubated at 37° C. for 30 min to allow for the matrix solution to solidify. HMEC grown in complete growth medium EGM-2MV were harvested by trypsin, suspended in the same growth medium and 500 μl containing 70 000 cells were added on top of the solidified Matrigel in each well and in the presence or absence of peptide. Cells were maintained in a humidified atmosphere air containing 5% CO2 at 37° C. for 18-24 hrs. Endothelial tube formation was observed and photographed under an inverted light microscope.
The designed tyrosine phosphorylated and non phosphorylated peptides were tested for their influence onto the in vitro angiogenesis. The results of the in vitro angiogenesis assay were presented in FIG. 1, using HMEC and 500 μg/ml final concentration of each peptide.

[4] = Solubility of peptides in 10% DMSO in PBS; format: physicochemical; details: 1 mg of peptide/ml of 10% DMSO in PBS
Description: GS-1 as well as the control peptide GS-0 were solubilized in DMSO and the resulting solutions were diluted 10 times with phosphate buffer saline (PBS) to obtain a concentration of 1 mg of peptide/ml of 10% DMSO in PBS. At this concentration, all peptides were soluble in 10% DMSO.
GS-2 as well as the control peptide GS-0 were solubilized in DMSO and the resulting solutions were diluted 10 times with phosphate buffer saline (PBS) to obtain a concentration of 1 mg of peptide/ml of 10% DMSO in PBS. At this concentration, all peptides were soluble in 10% DMSO.

mTOR = mTOR status in HMEC after incubation with peptides (anti-mTor antibody Ser2448); format: cell-based, human
Description: as §1
The status of mTOR in the HMEC following incubation with peptides GS-0 and GS-1 was investigated.

T1 sequence (P27986 whole entry): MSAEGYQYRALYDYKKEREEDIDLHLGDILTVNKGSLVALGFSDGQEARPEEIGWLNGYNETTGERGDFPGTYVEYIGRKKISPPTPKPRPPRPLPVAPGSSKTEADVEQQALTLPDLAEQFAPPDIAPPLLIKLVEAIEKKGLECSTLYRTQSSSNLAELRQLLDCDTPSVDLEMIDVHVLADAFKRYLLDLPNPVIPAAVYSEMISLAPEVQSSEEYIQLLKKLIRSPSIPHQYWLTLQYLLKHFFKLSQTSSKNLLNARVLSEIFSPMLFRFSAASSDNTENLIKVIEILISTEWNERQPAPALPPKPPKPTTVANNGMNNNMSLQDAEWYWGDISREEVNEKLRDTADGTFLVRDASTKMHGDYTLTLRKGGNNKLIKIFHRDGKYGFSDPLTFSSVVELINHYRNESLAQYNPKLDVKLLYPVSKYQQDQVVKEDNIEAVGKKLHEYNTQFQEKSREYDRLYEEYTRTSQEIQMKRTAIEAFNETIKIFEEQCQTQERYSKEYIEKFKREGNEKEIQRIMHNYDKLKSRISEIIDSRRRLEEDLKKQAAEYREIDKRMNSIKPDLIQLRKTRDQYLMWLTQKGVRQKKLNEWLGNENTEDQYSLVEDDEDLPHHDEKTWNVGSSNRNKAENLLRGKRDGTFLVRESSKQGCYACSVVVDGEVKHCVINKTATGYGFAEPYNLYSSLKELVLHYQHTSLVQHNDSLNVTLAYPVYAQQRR

## CSCC[C@H](NC(=O)[C@H](Cc1ccccc1)NC(=O)[C@H](CCSC)NC(=O)[C@H](Cc1ccc(OP(=O)(O)O)cc1)NC(=O)CNC(C)=O)C(=O)N[C@@H](CO)C(N)=O [GS-1, GpYMFMS] (Ac-G[pY]MFMS-NH2)
[1]
  influence onto the recruitment of the regulatory subunit (p85) of PI3K by IRS-1: very strong inhibitory effects
NCI-H460 tumors; 8 mg/kg i.p. daily for 12 days
  influence on the in vivo growth of the tumor NCI-H460 (in words): highly significant and potent influence; also recorded: statistically significant and potent anti-tumoral activity
NCI-H460 tumors; 8 mg/kg i.p. daily for 12 days, n=5
  mean tumor volume at the end of treatment: 234.98 ± 69.22 mm^3
NCI-H460 tumors; Table 2, 8 mg/kg i.p. daily, day 1
  Mean tumor volume D1: 114 mm³
NCI-H460 tumors; Table 2, 8 mg/kg i.p. daily, day 3
  Mean tumor volume D3: 133 mm³
NCI-H460 tumors; Table 2, 8 mg/kg i.p. daily, day 5
  Mean tumor volume D5: 124 mm³
NCI-H460 tumors; Table 2, 8 mg/kg i.p. daily, day 7
  Mean tumor volume D7: 141 mm³
NCI-H460 tumors; Table 2, 8 mg/kg i.p. daily, day 9
  Mean tumor volume D9: 231 mm³
NCI-H460 tumors; Table 2, 8 mg/kg i.p. daily, day 11
  Mean tumor volume D11: 334 mm³
NCI-H460 tumors; Table 2, 8 mg/kg i.p. daily, day 13
  Mean tumor volume D13: 235 mm³
[2]; 8 mg/kg intraperitoneally every day, 12 injections
  toxicity and body weight loss during treatment: No toxicity and no body weight loss
[2]; Table 1, 8 mg/kg i.p. daily, day 1, in g
  Mean body weight D1: 23.58
[2]; Table 1, 8 mg/kg i.p. daily, day 3, in g
  Mean body weight D3: 23.27
[2]; Table 1, 8 mg/kg i.p. daily, day 5, in g
  Mean body weight D5: 20.69
[2]; Table 1, 8 mg/kg i.p. daily, day 7, in g
  Mean body weight D7: 23.29
[2]; Table 1, 8 mg/kg i.p. daily, day 9, in g
  Mean body weight D9: 23.72
[2]; Table 1, 8 mg/kg i.p. daily, day 11, in g
  Mean body weight D11: 23.81
[2]; Table 1, 8 mg/kg i.p. daily, day 13, in g
  Mean body weight D13: 23.48
[3]
  in vitro angiogenesis-inhibitory activity: have in vitro angiogenesis-inhibitory activities
[4]
  solubility in 10% DMSO: soluble
mTOR
  amounts of mTOR in HMEC relative to vehicle: much less amounts of mTOR

## DpYMTMQ (Ac-D[pY]MTMQ-NH2) [GS-3, tyrosine phosphorylated peptide]
[3]
  in vitro angiogenesis-inhibitory activity: have in vitro angiogenesis-inhibitory activities
